{
  "source": "paper PMC11407758",
  "about": "“Integrated stress response (ISR) activation and apoptosis through HRI kinase by PG3 and other p53 pathway-restoring cancer therapeutics” (Oncotarget, 2024)",
  "key": {"HT29 (R273H)": {"tested_on": "HT29 (R273H)", "test": "Cell viability assay (CellTiterGlo), HT29", "format": "cell-based, human", "conditions": "Homo sapiens, HT-29; 72 h, CellTiterGlo", "method": "(§1) Figure 1 PG3 inhibits cell proliferation and growth in a p53-indepent manner. (A–E) Cell viability assay, dose response curves and IC50 value measurements in a panel of cancer cell lines and normal cells. Cells were treated with different concentrations of PG3, PG3-Oc (Oc), obatoclax (Ob), prodigiosin (P) or DMSO for 72 h. Luciferase activity was imaged by the IVIS Imaging System after treatment. Cell viability data were normalized to those of DMSO treatment control in each cell line and data analyses were performed using PRISM4 software. IC50 data are expressed as the mean ±SD (normal; n = 3).\nas §1, with “2 p53-dependent inhibition of” for “1 PG3 inhibits”, “is only observed at specific concentrations. (A–J)” for “and growth in a p53-indepent manner. (A–E)”, “ZMC1, CP-313908, APR-246, Ellipticine, Nutalin-3a” for “PG3, PG3-Oc (Oc), obatoclax (Ob), prodigiosin (P)”\n(§2) Cells were seeded in 96-well plates (6 × 10^3 cells/well). Cells were treated with different concentrations of compounds or dimethyl sulfoxide (DMSO) as a control for 72 hours. The cell viability was assessed by CellTiterGlo bioluminescent cell viability assay (Promega), following the manufacturer’s protocol. Bioluminescence imaging was measured using the IVIS imager. The percentage of cell viability (mean ± SEM) at each dose was calculated against the respective DMSO control. The IC50 values were determined from the sigmoidal dose-response curves using GraphPad Prism."}, "p53 protein": {"tested_on": "p53 protein", "test": "Western blot, p53 protein levels", "format": "cell-based, human", "method": "Cells were treated for 24 h with indicated compounds, concentrations and cell lines. Abbreviations: S.E.: Short exposure; L.E.: Long exposure.\n(§3) After treatment, protein lysates were collected for Western blot analysis. A total of 15 μg of protein was used for SDS-PAGE. After primary and secondary antibody incubations, the signal was detected by a chemiluminescence detection kit, imaged by Syngene (Imgen Technologies). Antibodies for NAG-1 (GDF15) and P53 were from Santa Cruz Biotechnology; for caspase 8, cleaved caspase 8, caspase 9, caspase 3, cleavage PARP, eIF2α, p-eIF2α (Ser51), CHOP, ATF4, DR5, and PUMA were from Cell Signaling Technology. Noxa and p21 were from Calbiochem. Ran was from BD Biosciences."}, "ATF4": {"tested_on": "ATF4", "test": "Western blot, ATF4 induction", "format": "cell-based, human", "conditions": "five cancer cell lines, 24 h", "method": "(§4) Figure 4 Activation of ATF4 and up-regulation of typical p53 target genes. (A–E) Western blot analysis of p53 protein levels and upregulation of ATF4, PUMA, DR5 and p21. Cells were treated for 24 h with indicated compounds, concentrations and cell lines. Abbreviations: S.E.: Short exposure; L.E.: Long exposure.\nas §3"}, "[1]": {"tested_on": "HFF-1 (human foreskin fibroblast cell with wild-type p53)", "test": "Cell viability assay (CellTiterGlo), HFF-1 normal cells", "format": "cell-based", "method": "as §1\nas §1, with “2 p53-dependent inhibition of” for “1 PG3 inhibits”, “is only observed at specific concentrations. (A–J)” for “and growth in a p53-indepent manner. (A–E)”, “ZMC1, CP-313908, APR-246, Ellipticine, Nutalin-3a” for “PG3, PG3-Oc (Oc), obatoclax (Ob), prodigiosin (P)”\nas §2"}, "HCT116 (R175H)": {"tested_on": "HCT116 (R175H)", "test": "Cell viability assay (CellTiterGlo), HCT116 R175H", "format": "cell-based, human", "conditions": "Homo sapiens, HCT-116; 72 h, CellTiterGlo", "method": "as §1\nas §1, with “2 p53-dependent inhibition of” for “1 PG3 inhibits”, “is only observed at specific concentrations. (A–J)” for “and growth in a p53-indepent manner. (A–E)”, “ZMC1, CP-313908, APR-246, Ellipticine, Nutalin-3a” for “PG3, PG3-Oc (Oc), obatoclax (Ob), prodigiosin (P)”\nas §2"}, "[2]": {"tested_on": "cleaved caspase-8, -3, cleaved PARP and PUMA in HT29, SW480 and HCT116 p53−/− cells", "test": "Western blot, apoptosis markers in PG3-treated cells", "format": "cell-based, human", "method": "Figure 5 PG3 induces apoptosis in p53-null and p53-mutant cancer cell lines. (A–E) Dose-response and time-course analysis of cleavage of caspase-8, -3, cleaved PARP and PUMA in PG3-treated HT29, SW480 and HCT116 p53^−/− cells by western blot using the indicated antibodies. (F–H) Flowcytometry analysis of cell death. (I) HT29 and HT29-PUMA^−/− and (J) SW480 cells were co-treated with PG3 and pan-caspase inhibitor Z-VAD-fmk for 48 h. (K) HCT116 p53^−/− cell were co-treated with PG3 and Z-VAD-fmk for 24 hours.\nas §3"}, "p21": {"tested_on": "p21", "test": "Western blot, p21 induction", "format": "cell-based, human", "conditions": "five cell lines, 24 h", "method": "as §4, §3"}, "HCT116 (WT)": {"tested_on": "HCT116 (WT)", "test": "Cell viability assay (CellTiterGlo), HCT116 WT", "format": "cell-based, human", "conditions": "Homo sapiens, HCT-116; 72 h, CellTiterGlo", "method": "as §1\nas §1, with “2 p53-dependent inhibition of” for “1 PG3 inhibits”, “is only observed at specific concentrations. (A–J)” for “and growth in a p53-indepent manner. (A–E)”, “ZMC1, CP-313908, APR-246, Ellipticine, Nutalin-3a” for “PG3, PG3-Oc (Oc), obatoclax (Ob), prodigiosin (P)”\nas §2"}},
  "data": [
    {"compound": "CCc1c(C)[nH]c(/C=C2\\N=C(c3ccc[nH]3)C=C2OC)c1C", "note": "[PG3]", "values": [
      {"measurement": "IC50", "setting": "HT29 (R273H)", "value": 36, "unit": "nM"},
      {"measurement": "wild-type p53 protein level", "setting": "p53 protein; HCT116, 24 h", "value": "do not upregulate expression"},
      {"measurement": "endogenous mutant p53 R273H protein level", "setting": "p53 protein; HT29, 24 h", "value": "no effects on stability"},
      {"measurement": "endogenous mutant p53 R175H protein level", "setting": "p53 protein; TOV-112D, 24 h", "value": "no effects on stability"},
      {"measurement": "exogenous mutant p53 R175H protein level", "setting": "p53 protein; engineered HCT116-R175H cells, 24 h", "value": "stabilize"},
      {"measurement": "upregulation of ATF4", "setting": "ATF4", "value": "induce upregulation of ATF4"},
      {"measurement": "fold less toxic than PG3-Oc", "setting": "[1]; HFF-1 normal cells", "value": 3.4, "unit": "fold"},
      {"measurement": "IC50", "setting": "[1]; Homo sapiens, HFF-1, 72 h, CellTiterGlo, normal cells, read-out: IC50 values, HFF-l (WT)", "value": 1050, "unit": "nM"},
      {"measurement": "IC50", "setting": "HCT116 (R175H)", "value": 66, "unit": "nM"},
      {"measurement": "time at which cleavage of PARP, caspase-8 and -3 occurs", "setting": "[2]; HT29, HCT116 p53–/– and SW480", "value": 48, "unit": "h"},
      {"measurement": "concentration sufficient to induce PUMA and activate cleaved caspase-8 and -3 and cleaved-PARP", "setting": "[2]; HT29 and SW480 cells, dose-response", "value": 0.5, "unit": "µM"},
      {"measurement": "caspase-9 activation", "setting": "[2]; HT29 cells", "value": "does not activate caspase-9"},
      {"measurement": "time at which PUMA protein is first induced", "setting": "[2]; time-course", "value": 24, "unit": "h"},
      {"measurement": "upregulation of p21", "setting": "p21", "value": "consistently induce upregulation"},
      {"measurement": "IC50", "setting": "HCT116 (WT)", "value": 71, "unit": "nM"}
    ]}
  ]
}
